Test results published in patent US12077503B2, “Substituted cyclic amides and their use as herbicides” (FMC CORPORATION, priority 2015, dated 2024).

Legend:
Type in all cases: in vivo
corn (Zea mays) [1] = test: Test G Post-Emergence Protocol; conditions: Zea mays, post-emergence, 312 h; for plant injury at 15.625 g/ha: 15.625 g ai/ha, evaluated after 13 days (100=total damage to plant; 0=no damage to plant), read-out: Corn damage rating; for plant injury at 62.5 g/ha: 62.5 g ai/ha, read-out: Corn damage rating (100=total damage to plant; 0=no damage to plant); for plant injury at 62.5 g/ha / plant injury at 250 g/ha: evaluated after 13 days; for plant injury at 250 g/ha: 250 g ai/ha, read-out: damage to plant, Corn (100=total damage to plant; 0=no damage to plant)
Method in brief: (§1)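 Values are percent visual injury at 13 days after treatment (0 none, 100 total). Treatment was a post-emergence spray at 15.625, 62.5 or 250 g/ha on 8-day-old pot plants kept at 24/16 °C.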

[2] = system: redroot pigweed (Amaranthus retroflexus); test: Test G Post-Emergence Protocol; conditions: Amaranthus retroflexus, post-emergence, 312 h; for pest or weed control at 15.625 g/ha: 15.625 g ai/ha, evaluated after 13 days (100=total damage to plant; 0=no damage to plant), read-out: Pigweed, Redroot damage rating; for pest or weed control at 62.5 g/ha: 62.5 g ai/ha, read-out: Pigweed, Redroot damage rating (100=total damage to plant; 0=no damage to plant); for pest or weed control at 62.5 g/ha / pest or weed control at 250 g/ha: evaluated after 13 days; for pest or weed control at 250 g/ha: 250 g ai/ha, read-out: damage to plant, Pigweed, Redroot (100=total damage to plant; 0=no damage to plant)
Method in brief: as §1

[3] = system: ivy-leaved morning glory (Ipomoea hederacea); test: Test G Post-Emergence Protocol; conditions: Ipomoea, post-emergence, 312 h; for pest or weed control at 15.625 g/ha: 15.625 g ai/ha, evaluated after 13 days (100=total damage to plant; 0=no damage to plant), read-out: Morningglory, Ivy-leaved damage rating; for pest or weed control at 62.5 g/ha: 62.5 g ai/ha, read-out: Morningglory, Ivy-leaved damage rating (100=total damage to plant; 0=no damage to plant); for pest or weed control at 62.5 g/ha / pest or weed control at 250 g/ha: evaluated after 13 days; for pest or weed control at 250 g/ha: 250 g ai/ha, read-out: damage to plant, Morningglory, Ivy-leaved (100=total damage to plant; 0=no damage to plant)
Method in brief: as §1

[4] = system: barnyardgrass (Echinochloa crus-galli); test: Test G Post-Emergence Protocol; conditions: Echinochloa crus-galli, post-emergence, 312 h; for pest or weed control at 15.625 g/ha: 15.625 g ai/ha, evaluated after 13 days (100=total damage to plant; 0=no damage to plant), read-out: Barnyardgrass damage rating; for pest or weed control at 62.5 g/ha: 62.5 g ai/ha, read-out: Barnyardgrass damage rating (100=total damage to plant; 0=no damage to plant); for pest or weed control at 62.5 g/ha / pest or weed control at 250 g/ha: evaluated after 13 days; for pest or weed control at 250 g/ha: 250 g ai/ha, read-out: damage to plant, Barnyardgrass (100=total damage to plant; 0=no damage to plant)
Method in brief: as §1

[5] = system: velvetleaf (Abutilon theophrasti); test: Test G Post-Emergence Protocol; conditions: Abutilon theophrasti, post-emergence, 312 h; for pest or weed control at 15.625 g/ha: 15.625 g ai/ha, evaluated after 13 days (100=total damage to plant; 0=no damage to plant), read-out: Velvetleaf damage rating; for pest or weed control at 62.5 g/ha: 62.5 g ai/ha, read-out: Velvetleaf damage rating (100=total damage to plant; 0=no damage to plant); for pest or weed control at 62.5 g/ha / pest or weed control at 250 g/ha: evaluated after 13 days; for pest or weed control at 250 g/ha: 250 g ai/ha, read-out: damage to plant, Velvetleaf (100=total damage to plant; 0=no damage to plant)
Method in brief: as §1

[6] = system: giant foxtail (Setaria faberi); test: Test G Post-Emergence Protocol; conditions: Setaria faberi, post-emergence, 312 h; for pest or weed control at 15.625 g/ha: 15.625 g ai/ha, evaluated after 13 days (100=total damage to plant; 0=no damage to plant), read-out: Foxtail, Giant damage rating; for pest or weed control at 62.5 g/ha: 62.5 g ai/ha, read-out: Foxtail, Giant damage rating (100=total damage to plant; 0=no damage to plant); for pest or weed control at 62.5 g/ha / pest or weed control at 250 g/ha: evaluated after 13 days; for pest or weed control at 250 g/ha: 250 g ai/ha, read-out: damage to plant, Foxtail, Giant (100=total damage to plant; 0=no damage to plant)
Method in brief: as §1

corn (Zea mays) [7] = test: Test G Pre-Emergence Protocol; conditions: Zea mays, pre-emergence, 312 h, evaluated after 13 days; for plant injury at 15.625 g/ha: 15.625 g ai/ha; for plant injury at 15.625 g/ha / plant injury at 250 g/ha: read-out: Corn damage rating (100=total damage to plant; 0=no damage to plant); for plant injury at 62.5 g/ha: 62.5 g ai/ha, 100=total damage to plant, 0=no damage to plant, read-out: plant damage rating, Corn; for plant injury at 250 g/ha: 250 g ai/ha
Method in brief: (§2)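 Seeds were sown in standard soil and kept one day in a glasshouse (24/16° C day/night, 14 h light, 65% humidity), then sprayed with compound in acetone/water (50:50) containing 0.5% Tween 20 at 15.625, 62.5 or 250 g/ha. Damage was scored after 13 days (0 = none, 100 = total).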

[8] = system: redroot pigweed (Amaranthus retroflexus); test: Test G Pre-Emergence Protocol; conditions: Amaranthus retroflexus, pre-emergence, 312 h, evaluated after 13 days; for pest or weed control at 15.625 g/ha: 15.625 g ai/ha; for pest or weed control at 15.625 g/ha / pest or weed control at 250 g/ha: read-out: Pigweed, Redroot damage rating (100=total damage to plant; 0=no damage to plant); for pest or weed control at 62.5 g/ha: 62.5 g ai/ha, 100=total damage to plant, 0=no damage to plant, read-out: plant damage rating, Pigweed, Redroot; for pest or weed control at 250 g/ha: 250 g ai/ha
Method in brief: as §2

[9] = system: ivy-leaved morning glory (Ipomoea hederacea); test: Test G Pre-Emergence Protocol; conditions: Ipomoea, pre-emergence, 312 h, evaluated after 13 days; for pest or weed control at 15.625 g/ha: 15.625 g ai/ha, read-out: Morning-glory, Ivy-leaved damage rating (100=total damage to plant; 0=no damage to plant); for pest or weed control at 62.5 g/ha: 62.5 g ai/ha, 100=total damage to plant, 0=no damage to plant, read-out: plant damage rating, Morningglory, Ivy-leaved; for pest or weed control at 250 g/ha: 250 g ai/ha, read-out: Morningglory, Ivy-leaved damage rating (100=total damage to plant; 0=no damage to plant)
Method in brief: as §2

[10] = system: barnyardgrass (Echinochloa crus-galli); test: Test G Pre-Emergence Protocol; conditions: Echinochloa crus-galli, pre-emergence, 312 h, evaluated after 13 days; for pest or weed control at 15.625 g/ha: 15.625 g ai/ha, read-out: Barnyard grass damage rating (100=total damage to plant; 0=no damage to plant); for pest or weed control at 62.5 g/ha: 62.5 g ai/ha, 100=total damage to plant, 0=no damage to plant, read-out: plant damage rating, Barnyardgrass; for pest or weed control at 250 g/ha: 250 g ai/ha, read-out: Barnyardgrass damage rating (100=total damage to plant; 0=no damage to plant)
Method in brief: as §2

[11] = system: velvetleaf (Abutilon theophrasti); test: Test G Pre-Emergence Protocol; conditions: Abutilon theophrasti, pre-emergence, 312 h, evaluated after 13 days; for pest or weed control at 15.625 g/ha: 15.625 g ai/ha; for pest or weed control at 15.625 g/ha / pest or weed control at 250 g/ha: read-out: Velvetleaf damage rating (100=total damage to plant; 0=no damage to plant); for pest or weed control at 62.5 g/ha: 62.5 g ai/ha, 100=total damage to plant, 0=no damage to plant, read-out: plant damage rating, Velvetleaf; for pest or weed control at 250 g/ha: 250 g ai/ha
Method in brief: as §2

[12] = system: giant foxtail (Setaria faberi); test: Test G Pre-Emergence Protocol; conditions: Setaria faberi, pre-emergence, 312 h, evaluated after 13 days; for pest or weed control at 15.625 g/ha: 15.625 g ai/ha; for pest or weed control at 15.625 g/ha / pest or weed control at 250 g/ha: read-out: Foxtail, Giant damage rating (100=total damage to plant; 0=no damage to plant); for pest or weed control at 62.5 g/ha: 62.5 g ai/ha, 100=total damage to plant, 0=no damage to plant, read-out: plant damage rating, Foxtail, Giant; for pest or weed control at 250 g/ha: 250 g ai/ha
Method in brief: as §2

Row | SMILES | plant injury at 15.625 g/ha (corn (Zea mays) [1]) [%] | plant injury at 62.5 g/ha (corn (Zea mays) [1]) [%] | plant injury at 250 g/ha (corn (Zea mays) [1]) [%] | pest or weed control at 15.625 g/ha [2] [%] | pest or weed control at 62.5 g/ha [2] [%] | pest or weed control at 250 g/ha [2] [%] | pest or weed control at 15.625 g/ha [3] [%] | pest or weed control at 62.5 g/ha [3] [%] | pest or weed control at 250 g/ha [3] [%] | pest or weed control at 15.625 g/ha [4] [%] | pest or weed control at 62.5 g/ha [4] [%] | pest or weed control at 250 g/ha [4] [%] | pest or weed control at 15.625 g/ha [5] [%] | pest or weed control at 62.5 g/ha [5] [%] | pest or weed control at 250 g/ha [5] [%] | pest or weed control at 15.625 g/ha [6] [%] | pest or weed control at 62.5 g/ha [6] [%] | pest or weed control at 250 g/ha [6] [%] | plant injury at 15.625 g/ha (corn (Zea mays) [7]) [%] | plant injury at 62.5 g/ha (corn (Zea mays) [7]) [%] | further results
1 | Cc1nonc1NC(=O)[C@@H]1C(=O)N(C)C[C@H]1c1ccc(C(F)(F)F)cc1 (racemic) [Compound 1597] | 0 | 0 | 0 | 0 | 0 | 0 | 0 | 0 | 0 | 0 | 0 | 0 | 0 | 0 | 0 | 0 | 0 | 0 | 0 | 0 | plant injury at 250 g/ha (corn (Zea mays) [7]): 0%; pest or weed control at 15.625 g/ha [8]: 0%; pest or weed control at 62.5 g/ha [8]: 0%; pest or weed control at 250 g/ha [8]: 0%; pest or weed control at 15.625 g/ha [9]: 0%; pest or weed control at 62.5 g/ha [9]: 0%; pest or weed control at 250 g/ha [9]: 0%; pest or weed control at 15.625 g/ha [10]: 0%; pest or weed control at 62.5 g/ha [10]: 0%; pest or weed control at 250 g/ha [10]: 0%; pest or weed control at 15.625 g/ha [11]: 0%; pest or weed control at 62.5 g/ha [11]: 0%; pest or weed control at 250 g/ha [11]: 0%; pest or weed control at 15.625 g/ha [12]: 0%; pest or weed control at 62.5 g/ha [12]: 0%; pest or weed control at 250 g/ha [12]: 0%
2 | CC(C)c1cc(NC(=O)[C@@H]2C(=O)N(C)C[C@H]2c2ccc(C(F)(F)F)cc2)[nH]n1 (racemic) [Compound 1522] | 0 | 10 | 10 | 0 | 0 | 0 | 0 | 0 | 0 | 0 | 0 | 0 | 0 | 0 | 0 | 0 | 0 | 0 | 0 | 0 | plant injury at 250 g/ha (corn (Zea mays) [7]): 0%; pest or weed control at 15.625 g/ha [8]: 0%; pest or weed control at 62.5 g/ha [8]: 0%; pest or weed control at 250 g/ha [8]: 0%; pest or weed control at 15.625 g/ha [9]: 0%; pest or weed control at 62.5 g/ha [9]: 0%; pest or weed control at 250 g/ha [9]: 0%; pest or weed control at 15.625 g/ha [10]: 0%; pest or weed control at 62.5 g/ha [10]: 0%; pest or weed control at 250 g/ha [10]: 0%; pest or weed control at 15.625 g/ha [11]: 0%; pest or weed control at 62.5 g/ha [11]: 0%; pest or weed control at 250 g/ha [11]: 0%; pest or weed control at 15.625 g/ha [12]: 0%; pest or weed control at 62.5 g/ha [12]: 0%; pest or weed control at 250 g/ha [12]: 0%
3 | CN1C[C@@H](c2ccc(C(F)(F)F)cc2)[C@H](C(=O)Nc2cc(C(C)(C)C)[nH]n2)C1=O (racemic) [Compound 1545] | 0 | 0 | 0 | 0 | 0 | 0 | 0 | 0 | 0 | 0 | 0 | 0 | 0 | 0 | 0 | 0 | 0 | 0 | 0 | 0 | plant injury at 250 g/ha (corn (Zea mays) [7]): 0%; pest or weed control at 15.625 g/ha [8]: 0%; pest or weed control at 62.5 g/ha [8]: 0%; pest or weed control at 250 g/ha [8]: 0%; pest or weed control at 62.5 g/ha [9]: 0%; pest or weed control at 250 g/ha [9]: 0%; pest or weed control at 15.625 g/ha [10]: 0%; pest or weed control at 62.5 g/ha [10]: 0%; pest or weed control at 250 g/ha [10]: 0%; pest or weed control at 15.625 g/ha [11]: 0%; pest or weed control at 62.5 g/ha [11]: 0%; pest or weed control at 250 g/ha [11]: 0%; pest or weed control at 15.625 g/ha [12]: 0%; pest or weed control at 62.5 g/ha [12]: 0%; pest or weed control at 250 g/ha [12]: 0%
